Structures are written as SMILES. Values after ≈ are worked out from the molar mass of the structure shown. Active and inactive are the calls of the source. No cut-off for these calls is given here.

Assay [1] in a line: Inhibition of bovine thymus p56 LCK activity. Also noted: species or system Bos taurus.
Assay [2] is described as follows: Inhibition of bovine thymus p56 LCK activity by competitive inhibition assay. Also noted: species or system Bos taurus.
The next assay is filed under the species Bos taurus. The assay can be described thus: Inhibition of bovine thymus p56 LCK activity by noncompetitive inhibition assay.

In the case of `Cc1cc(O)c2c(c1)C(=O)c1cc(O)cc(O[C@@H]3O[C@H](CO)[C@@H](O)[C@H](O)[C@H]3O)c1C2=O` [EMODIN 8-O-BETA-D-GLUCOPYRANOSIDE], the IC50 in assay [1] was above 800 µg/mL.

In assay [1], `Cc1cc(O)c2c(c1)C(=O)c1cc(O)cc(O)c1C2=O` [EMODIN] showed an IC50 of 5 µg/mL (≈ 18.5 µM). In assay [2], this molecule came in with a Ki of 13 µM. Further, in the assay listed under Bos taurus, the outcome was Active. Regarding `COc1cc(O)c2c(c1)C(=O)c1cc(C)cc(O)c1C2=O` [PHYSCION], the IC50 in assay [1] is above 800 µg/mL.

As usually defined, the IC50 is the concentration at which inhibition is half-maximal. The Ki is a measure of affinity in units of concentration, obtained from inhibition or displacement. A low value points to a stronger hold on the target.

The values above are taken from ChEMBL document CHEMBL1159034, “Emodin, a protein tyrosine kinase inhibitor from Polygonum cuspidatum” (J Nat Prod, 1992).
